Data: US8455497B2, “Inhibitors of aspartyl protease” (Vertex Pharmaceuticals Incorporated, priority 1999, dated 2013)
Read-outs that look alike come from different tables or passages of the source.

Tests used:
HIV-1 (strain IIIB) = assay: Antiviral activity assay in MT4 cells (propidium iodide based); assay type: cell-based; details: wild type HIV-1 virus, MT4 cells, read-out: Wildtype virus - IC50
In short: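 Compound serial dilutions in RPMI/FCS received MT4 cells pre-infected 1 hr at 37°C with HIV-1 IIIB at 100×TCID50. After 5 days' culture and Nonidet-40 lysis, well DNA content was measured by propidium iodide dye; mock-infected cells served as control.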

[1] = test system: D545701-14 multi protease inhibitor resistant virus; assay: Anti-viral activity against resistant virus D545701-14 in MT4 cells; assay type: cell-based, HIV-1
[2] = test system: EP13 multi protease inhibitor resistant virus; assay: Anti-viral activity against resistant virus EP13 in MT4 cells; assay type: cell-based, HIV-1
In short: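 MT4 cells infected for 1 h at 37 °C, MOI 100×TCID50, then diluted 6-fold onto pre-diluted compound and cultured 5 days (5% CO2). Viable-cell DNA content estimated by propidium iodide. EP13 carries protease mutations M46I, L63P, A71V, V82F/L, I84V, no RT mutations.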

[3] = Human immunodeficiency virus 1, IIIB
[4] = Human immunodeficiency virus 1, MT4, read-out: D545701-14 mutant - IC50, D545701-14 multi protease inhibitor resistant virus, MT4 cells
[5] = Human immunodeficiency virus 1, MT4, read-out: EP13 mutant IC50, EP13 multi protease inhibitor resistant virus, MT4 cells
[6] = Human immunodeficiency virus 1, MT4, read-out: D545701-14 mutant - IC50
[7] = Human immunodeficiency virus 1, MT4, read-out: EP13 mutant IC50
[8] = D545701-14 multi protease inhibitor resistant virus, MT4 cells, read-out: D545701-14 mutant - IC50
[9] = EP13 multi protease inhibitor resistant virus, MT4 cells, read-out: EP13 mutant IC50

## CC(C)CN(C[C@@H](O)[C@H](Cc1ccc(Oc2ccc([N+](=O)[O-])cc2[N+](=O)[O-])cc1)NC(=O)O[C@H]1CO[C@H]2OCC[C@H]21)S(=O)(=O)c1ccc2c(c1)OCO2 [Compound 336, (3R,3aS,6aR)-hexahydrofuro[2,3-b]furan-3-yl (1S,2R)-3-[(1,3-benzodioxol-5-ylsulfonyl)(isobutyl)amino]-1-[4-(2,4-dinitrophenoxy)benzyl]-2-hydroxypropylcarbamate]
HIV-1 (strain IIIB); [3]
  IC50: 1 to 10 nM
[1]; [4]
  IC50: 1 to 10 nM
[2]; [5]
  IC50: 1 to 10 nM

## CC(C)CN(C[C@@H](O)[C@H](Cc1ccc(OCc2cccc(C#N)c2)cc1)NC(=O)O[C@H]1CO[C@H]2OCC[C@H]21)S(=O)(=O)c1ccc2c(c1)OCCO2 [Compound 338, (3R,3aS,6aR)-hexahydrofuro[2,3-b]furan-3-yl (1S,2R)-1-{4-[(3-cyanobenzyl)oxy]benzyl}-3-[(2,3-dihydro-1,4-benzodioxin-6-ylsulfonyl)(isobutyl)amino]-2-hydroxypropylcarbamate]
HIV-1 (strain IIIB); [3]
  IC50: 1 to 10 nM
[1]; [4]
  IC50: 1 to 10 nM
[2]; [5]
  IC50: 1 to 10 nM

## CC(C)CN(C[C@@H](O)[C@H](Cc1ccc(OCc2cccc(C#N)c2)cc1)NC(=O)O[C@H]1CO[C@H]2OCC[C@H]21)S(=O)(=O)c1ccc2c(c1)OC(F)(F)O2 [Compound 342, (3R,3aS,6aR)-hexahydrofuro[2,3-b]furan-3-yl (1S,2R)-1-{4-[(3-cyanobenzyl)oxy]benzyl}-3-[[(2,2-difluoro-1,3-benzodioxol-5-yl)sulfonyl](isobutyl)amino]-2-hydroxypropylcarbamate]
HIV-1 (strain IIIB); [3]
  IC50: 10 to 100 nM
[1]; [4]
  IC50: 10 to 100 nM
[2]; [5]
  IC50: 10 to 100 nM

## CC(=O)Oc1ccc(S(=O)(=O)N(CC(C)C)C[C@@H](O)[C@H](Cc2ccc(OCc3csc(C)n3)cc2)NC(=O)O[C@H]2CO[C@H]3OCC[C@H]32)cc1C [Compound 347, 4-{[((2R,3S)-3-({[(3R,3aS,6aR)-hexahydrofuro[2,3-b]furan-3-yloxy]carbonyl}amino)-2-hydroxy-4-{4-[(2-methyl-1,3-thiazol-4-yl)methoxy]phenyl}butyl)(isobutyl)amino]sulfonyl}-2-methylphenyl acetate]
HIV-1 (strain IIIB); [3]
  IC50: 1 to 10 nM
[1]; [4]
  IC50: 1 to 10 nM
[2]; [5]
  IC50: 1 to 10 nM

## Cc1nc(COc2ccc(C[C@H](NC(=O)O[C@H]3CO[C@H]4OCC[C@H]43)[C@H](O)CN(CC(C)C)S(=O)(=O)c3ccc(O)c(C)c3)cc2)cs1 [Compound 348, (3R,3aS,6aR)-hexahydrofuro[2,3-b]furan-3-yl (1S,2R)-2-hydroxy-3-[[(4-hydroxy-3-methylphenyl)sulfonyl](isobutyl)amino]-1-{4-[(2-methyl-1,3-thiazol-4-yl)methoxy]benzyl}propylcarbamate]
HIV-1 (strain IIIB); [3]
  IC50: 1 to 10 nM
[1]; [4]
  IC50: 1 to 10 nM
[2]; [5]
  IC50: 1 to 10 nM

## CC(C)CN(C[C@@H](O)[C@H](Cc1ccc(OS(=O)(=O)c2ccc3c(c2)OCO3)cc1)NC(=O)O[C@H]1CO[C@H]2OCC[C@H]21)S(=O)(=O)c1ccc2c(c1)OCO2 [Compound 349, 4-{(2S,3R)-2-({[(3R,3aS,6aR)-hexahydrofuro[2,3-b]furan-3-yloxy]carbonyl}amino)-4-[(1,3-benzodioxol-5-ylsulfonyl)(isobutyl)amino]-3-hydroxybutyl}phenyl 1,3-benzodioxole-5-sulfonate]
HIV-1 (strain IIIB); [3]
  IC50: 1 to 10 nM
[1]; [4]
  IC50: 1 to 10 nM
[2]; [5]
  IC50: 1 to 10 nM

## CC(C)CN(C[C@@H](O)[C@H](Cc1ccc(OCCc2ccccc2)cc1)NC(=O)O[C@H]1CO[C@H]2OCC[C@H]21)S(=O)(=O)c1ccc2c(c1)OCO2 [Compound 352, (3R,3aS,6aR)hexahydrofuro[2,3-b]furan-3-yl (1S,2R)-3[(1,3-benzodioxol-5-ylsulfonyl)(isobutyl)amino]-2-hydroxy-1-[4-(phenethyloxy)benzyl]propylcarbamate]
HIV-1 (strain IIIB); [3]
  IC50: < 1 nM
[1]; [4]
  IC50: 1 to 10 nM
[2]; [5]
  IC50: < 1 nM

## CC(=O)NCCOc1ccc(C[C@H](NC(=O)O[C@H]2CO[C@H]3OCC[C@H]32)[C@H](O)CN(CC(C)C)S(=O)(=O)c2ccc3c(c2)OCO3)cc1 [Compound 355, (3R,3aS,6aR)hexahydrofuro[2,3-b]furan-3-yl (1S,2R)-3-[(1,3-benzodioxol-5-ylsulfonyl)(isobutyl)amino]-2-hydroxy-1-[4-(2-[acetylamino]ethoxy)benzyl]propylcarbamate]
HIV-1 (strain IIIB); [3]
  IC50: 10 to 100 nM
[1]; [4]
  IC50: 10 to 100 nM
[2]; [5]
  IC50: 10 to 100 nM

## COC(=O)NCCOc1ccc(C[C@H](NC(=O)O[C@H]2CO[C@H]3OCC[C@H]32)[C@H](O)CN(CC(C)C)S(=O)(=O)c2ccc3c(c2)OCO3)cc1 [Compound 356, (3R,3aS,6aR)hexahydrofuro[2,3-b]furan-3-yl (1S,2R)-3-[(1,3-benzodioxol-5-ylsulfonyl)(isobutyl)amino]-2-hydroxy-1-[4-(2-[(methoxycarbonyl)amino]ethoxy)benzyl]propylcarbamate]
HIV-1 (strain IIIB); [3]
  IC50: 1 to 10 nM
[1]; [6]
  IC50: < 1 nM
[2]; [7]
  IC50: 1 to 10 nM

## CC(C)CN(C[C@@H](O)[C@H](Cc1ccc(OCCNS(C)(=O)=O)cc1)NC(=O)O[C@H]1CO[C@H]2OCC[C@H]21)S(=O)(=O)c1ccc2c(c1)OCO2 [Compound 357, (3R,3aS,6aR)hexahydrofuro[2,3-b]furan-3-yl (1S,2R)-3-[(1,3-benzodioxol-5-ylsulfonyl)(isobutyl)amino]-2-hydroxy-1-[4-(2-[(methylsulfonyl)amino]ethoxy)benzyl]propylcarbamate]
HIV-1 (strain IIIB); [3]
  IC50: 10 to 100 nM
[1]; [6]
  IC50: 10 to 100 nM
[2]; [7]
  IC50: 1 to 10 nM

## CNC(=O)NCCOc1ccc(C[C@H](NC(=O)O[C@H]2CO[C@H]3OCC[C@H]32)[C@H](O)CN(CC(C)C)S(=O)(=O)c2ccc3c(c2)OCO3)cc1 [Compound 358, (3R,3aS,6aR)hexahydrofuro[2,3-b]furan-3-yl (1S,2R)-3-[(1,3-benzodioxol-5-ylsulfonyl)(isobutyl)amino]-2-hydroxy-1-[4-(2-[([methylamino]carbonyl)amino]ethoxy)benzyl]propylcarbamate]
HIV-1 (strain IIIB); [3]
  IC50: 10 to 100 nM
[1]; [6]
  IC50: 10 to 100 nM
[2]; [7]
  IC50: 10 to 100 nM

## CC(C)CN(C[C@@H](O)[C@H](Cc1ccc(OCCN(C)C)cc1)NC(=O)O[C@H]1CO[C@H]2OCC[C@H]21)S(=O)(=O)c1ccc2c(c1)OCO2 [Compound 359, (3R,3aS,6aR)hexahydrofuro[2,3-b]furan-3-yl (1S,2R)-3-[(1,3-benzodioxol-5-ylsulfonyl)(isobutyl)amino]-2-hydroxy-1-[4-(2-[dimethylamino]ethoxy)benzyl]propylcarbamate]
HIV-1 (strain IIIB); [3]
  IC50: 10 to 100 nM
[1]; [4]
  IC50: 10 to 100 nM
[2]; [5]
  IC50: 10 to 100 nM

## CNC(=O)OCCCC(C)(C)CN(C[C@@H](O)[C@H](Cc1ccc(OCc2ccccc2)cc1)NC(=O)OC1CO[C@H]2OCC[C@@H]12)S(=O)(=O)c1ccc2c(c1)OCO2 (stereo partly drawn) [Compound 361]
HIV-1 (strain IIIB); [3]
  IC50: 1 to 10 nM
[1]; [4]
  IC50: 10 to 100 nM
[2]; [5]
  IC50: 10 to 100 nM

## CC(C)CN(C[C@@H](O)[C@H](Cc1ccc(OCc2ccccc2)cc1)NC(=O)O[C@H]1CO[C@H]2OCC[C@H]21)S(=O)(=O)c1ccc2c(c1)OCCO2 [Compound 365]
HIV-1 (strain IIIB); [3]
  IC50: 1 to 10 nM
[1]; [4]
  IC50: 1 to 10 nM
[2]; [5]
  IC50: 1 to 10 nM

## CC(C)CN(C[C@@H](O)[C@H](Cc1ccc(OCc2cccc(C#N)c2)cc1)NC(=O)O[C@H]1CO[C@H]2OCC[C@H]21)S(=O)(=O)c1ccc2c(c1)OCO2 [Compound 367, (3R,3aS,6aR)-Hexahydrofuro[2,3-b]furan-3-yl-N (1S,2R)-1-[4-(3-cyanobenzyloxy)-benzyl]-3-i-butyl-[(3,4-methylenedioxyphenyl)sulfonyl]-amino-2-hydroxypropyl-carbamate]
HIV-1 (strain IIIB)
  IC50: < 1 nM
[1]; [8]
  IC50: 1 to 10 nM
[2]; [9]
  IC50: < 1 nM

## Cc1nc(COc2ccc(C[C@H](NC(=O)O[C@H]3CO[C@H]4OCC[C@H]43)[C@H](O)CN(CC(C)C)S(=O)(=O)c3ccc4c(c3)OCO4)cc2)cs1 [Compound 368]
HIV-1 (strain IIIB)
  IC50: < 1 nM
[1]; [8]
  IC50: 1 to 10 nM
[2]; [9]
  IC50: < 1 nM

## CC(C)CN(C[C@@H](O)[C@H](Cc1ccc(OCc2noc(C(C)(C)C)n2)cc1)NC(=O)O[C@H]1CO[C@H]2OCC[C@H]21)S(=O)(=O)c1ccc2c(c1)OCO2 [Compound 370]
HIV-1 (strain IIIB); [3]
  IC50: < 1 nM
[1]; [4]
  IC50: 1 to 10 nM
[2]; [5]
  IC50: 1 to 10 nM

## CC(C)CN(C[C@@H](O)[C@H](Cc1ccc(OCc2ccc3ccccc3c2)cc1)NC(=O)O[C@H]1CO[C@H]2OCC[C@H]21)S(=O)(=O)c1ccc2c(c1)OCO2 [Compound 376, (3R,3aS,6aR)-hexahydrofuro[2,3-b]furan-3-yl (1S,2R)-3-[(1,3-benzodioxol-5-ylsulfonyl)(isobutyl)amino]-2-hydroxy-1-[4-(2-naphthylmethoxy)benzyl]propylcarbamate]
HIV-1 (strain IIIB); [3]
  IC50: 1 to 10 nM
[1]; [4]
  IC50: 10 to 100 nM
[2]; [5]
  IC50: 10 to 100 nM

## Cc1cccc(COc2ccc(C[C@H](NC(=O)O[C@H]3CO[C@H]4OCC[C@H]43)[C@H](O)CN(CC(C)C)S(=O)(=O)c3ccc4c(c3)OCO4)cc2)c1 [Compound 377, (3R,3aS,6aR)-hexahydrofuro[2,3-b]furan-3-yl (1S,2R)-3-[(1,3-benzodioxol-5-ylsulfonyl)(isobutyl)amino]-2-hydroxy-1-{4-[(3-methylbenzyl)oxy]benzyl}propylcarbamate]
HIV-1 (strain IIIB); [3]
  IC50: 1 to 10 nM
[1]; [4]
  IC50: 10 to 100 nM
[2]; [5]
  IC50: 1 to 10 nM
